Patent US10611765B2, “Pyrrolopyrimidine derivatives as Mps1/TTK kinase inhibitors” (Ohio State Innovation Foundation, priority 2014, dated 2020)
Like-named read-outs stand apart in the source and are kept apart here.

Legend:
BT-549 = assay: MTS anti-proliferative assay, BT-549; assay type: cell-based; details: BT-549, TNBC, basal B, treatment for 7 days
Method: (§1) The anti-proliferative effects and IC50 values of the compounds in the BC cell line panel were determined by MTS assay.
(§2) The cells, except Sk-Br-3, AU565 and BT-474 were maintained in a mixture of Dulbecco's modified Eagle's medium and Ham's F12 medium (1:1) (DMEM/F12) without phenol red supplemented with 5% fetal bovine serum (FBS) and 1× antibiotic-antimycotic (100 U/mL penicillin G sodium, 100 μg/mL streptomycin sulfate and 0.25 μg/mL amphotericin B) and were plated separately in flasks in a humidified incubator (5% CO2: 95% air, 37° C.). The media used for Sk-Br-3, AU565 and BT-474 cell lines was described in (1) Brueggemeier et al., J. Steroid Biochem. Mol. Biol., 2005; 95:129-136; and (2) Diaz-Cruz et al., J. Clin. Endocrinol. Metab., 2005; 90:2563-2570. The media were changed every 2-days. When the cells grew to about 80% confluence, cells were washed twice with calcium- and magnesium-free phosphate-buffered saline (PBS, pH 7.4), and then trypsinized with 0.05% trypsin-5.3 mm EDTA. The trypsinization was stopped by addition of culture medium with 5% FBS. After centrifugation, the dissociated cells were resuspended in the same medium and subcultured into 75-cm^2 culture flasks at a ratio of 1:5 flasks.
(§3) The BC cells were seeded at the density of 1,000 cells per well (100 μL) into 96 well plate in DMEM/F-12 (1:1), supplemented with 5% (v/v) FCS and incubated overnight at 37° C. Test compounds are solubilized in dimethyl sulfoxide (DMSO), diluted in cell culture medium to a range of final assay concentrations of 1 nM to 10 μM, added to cells and incubated for 7 days at 37° C. The medium including the test compound are refreshed at days 3 and 5. The MTS assay are carried out by using the CellTiter 96® AQueous One Solution Cell Proliferation Assay kit following the manufacturer's instruction.

CAL-51 = assay: MTS anti-proliferative assay, CAL-51; assay type: cell-based; details: CAL-51, TNBC, basal, treatment for 7 days
Method: as §1, §2, §3

HCC1937 = assay: MTS anti-proliferative assay, HCC1937; assay type: cell-based; details: HCC1937, TNBC, basal, treatment for 7 days
Method: as §1, §2, §3

MDA-MB-436 = assay: MTS anti-proliferative assay, MDA-MB-436; assay type: cell-based; details: MDA-MB-436, TNBC, basal B, treatment for 7 days
Method: as §1
(§4) The media were changed every 2-days. When the cells grew to about 80% confluence, cells were washed twice with calcium- and magnesium-free phosphate-buffered saline (PBS, pH 7.4), and then trypsinized with 0.05% trypsin-5.3 mm EDTA. The trypsinization was stopped by addition of culture medium with 5% FBS.
as §3

MDA-MB-468 = assay: MTS anti-proliferative assay, MDA-MB-468; assay type: cell-based; details: MDA-MB-468, TNBC, basal B, treatment for 7 days
Method: as §1, §2, §3

CAMA-1 = assay: MTS anti-proliferative assay, CAMA-1; assay type: cell-based; details: CAMA-1, luminal, treatment for 7 days
Method: as §1, §2, §3

MDA-MB-453 = assay: MTS anti-proliferative assay, MDA-MB-453; assay type: cell-based; details: MDA-MB-453, luminal A, treatment for 7 days
Method: as §1, §4, §3

BT-20 = assay: MTS anti-proliferative assay, BT-20; assay type: cell-based; details: BT-20, TNBC, basal A, treatment for 7 days
Method: as §1, §2, §3

Hs578T = assay: MTS anti-proliferative assay, Hs578T; assay type: cell-based; details: TNBC, basal B, treatment for 7 days
Method: as §1, §2, §3

MDA-MB-231 = assay: MTS anti-proliferative assay, MDA-MB-231; assay type: cell-based; details: MDA-MB-231, TNBC, basal B, treatment for 7 days
Method: as §1, §2, §3

MCF-7 = assay: MTS anti-proliferative assay, MCF-7; assay type: cell-based; details: MCF-7, luminal A, treatment for 7 days
Method: as §1, §2, §3

Sk-Br-3 = assay: MTS anti-proliferative assay, Sk-Br-3; assay type: cell-based; details: Sk-Br-3, luminal, treatment for 7 days
Method: as §1, §2, §3

AU565 = assay: MTS anti-proliferative assay, AU565; assay type: cell-based; details: AU565, luminal, treatment for 7 days
Method: as §1, §2, §3

T47D = assay: MTS anti-proliferative assay, T47D; assay type: cell-based; details: luminal, treatment for 7 days
Method: as §1, §2, §3

BT-474 = assay: MTS anti-proliferative assay, BT-474; assay type: cell-based; details: BT-474, luminal B, treatment for 7 days
Method: as §1, §2, §3

[1] = test system: panel of breast cancer cell lines; assay: Anti-proliferative assays, panel of BC cell lines (overall statements); assay type: cell-based; details: in some or all of the cell based assays in the panel
Method: This example describes the development of novel small molecule Mps1/TTK inhibitors as targeted therapies for TNBC and other aggressive BC using drug discovery technologies. Using computational modeling, medicinal chemistry, biochemistry and cell culture assays, the inventors have identified novel small molecules as potential Mps1/TTK inhibitors. The compounds were evaluated in anti-proliferative assays of a panel of 15 BC cell lines and further examined for their ability to inhibit a variety of Mps1-dependent biological functions.
as §1, §2, §3

[2] = target: T1, Mps1/TTK kinase (recombinant GST-Mps1) (Homo sapiens, UniProt P33981); assay: Mps1 in vitro kinase assay with Cetn2 substrate; assay type: biochemical
T1 sequence (P33981 1-857): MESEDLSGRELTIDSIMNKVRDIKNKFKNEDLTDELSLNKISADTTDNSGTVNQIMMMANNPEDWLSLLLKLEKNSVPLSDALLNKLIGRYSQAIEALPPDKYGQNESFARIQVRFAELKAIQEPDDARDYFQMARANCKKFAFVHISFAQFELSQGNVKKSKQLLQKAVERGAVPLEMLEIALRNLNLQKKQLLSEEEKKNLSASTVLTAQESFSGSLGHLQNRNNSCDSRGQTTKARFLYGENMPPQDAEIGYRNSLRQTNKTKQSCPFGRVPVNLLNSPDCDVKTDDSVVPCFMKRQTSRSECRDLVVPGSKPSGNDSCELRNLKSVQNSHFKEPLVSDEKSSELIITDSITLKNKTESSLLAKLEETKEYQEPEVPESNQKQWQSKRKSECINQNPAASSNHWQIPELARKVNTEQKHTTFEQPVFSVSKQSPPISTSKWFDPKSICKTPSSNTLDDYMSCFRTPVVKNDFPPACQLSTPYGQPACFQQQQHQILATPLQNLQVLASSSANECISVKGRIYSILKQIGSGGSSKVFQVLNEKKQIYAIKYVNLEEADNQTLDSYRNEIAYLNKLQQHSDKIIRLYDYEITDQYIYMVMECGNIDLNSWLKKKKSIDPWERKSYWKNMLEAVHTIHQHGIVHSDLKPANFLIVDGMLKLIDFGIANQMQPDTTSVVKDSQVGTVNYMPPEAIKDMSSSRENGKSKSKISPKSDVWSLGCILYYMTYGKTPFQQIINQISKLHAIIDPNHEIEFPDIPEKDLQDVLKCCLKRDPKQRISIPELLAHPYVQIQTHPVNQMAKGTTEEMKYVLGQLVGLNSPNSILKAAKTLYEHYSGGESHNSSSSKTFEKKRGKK
Method: To determine the efficacy of the compounds against Mps1/TTK kinase activity, assays were performed as previously described (11) using recombinant Mps1, Cetn2 (specific substrate), and varying concentration of compound.

[3] = test system: S-phase (BrdU-positive) cells; assay: Centriole number in S-phase cells (preliminary investigations); assay type: cell-based; details: drug for 20 hours, then 4 hour pulse of BrdU
Method: (§5) For these cell biology assays, cells were plated onto poly-L-lysine coated coverslips in 24 well dishes using the medium and growth conditions described above, but using medium containing phenol red. At 24 hours after plating, compounds (or the equivalent amount of DMSO) were added to individual wells at various concentrations. Cells were incubated for 24 hours at 37° C. BrdU was added during the last 4 hours of the incubation, after which cells were fixed in pre-chilled methanol at −20 OC for 10 minutes, stained with centrosome markers, then treated with acid to denature chromosomal DNA prior to staining for BrdU. To assess centriole biogenesis, centriole number was determined for triplicate samples in cells that had entered S-phase as judged by incorporation of BrdU. Primary antibodies used were mouse anti-γTubulin (pericentriolar material) and rabbit anti-Centrin 2 (centrioles). Secondary antibodies used were Alexa594-conjugated donkey anti-mouse and Alexa488-conjugated donkey anti-rabbit.
For centriole assembly assays, Cal-51 and MDA-MB-468 cells were treated with candidate compounds prior to a short pulse of BrdU. Because the centriole pair is replicated at the G1/S transition, compounds that block centrosome assembly will lead to an increased number of BrdU-positive cells with two centrioles. […]

Cal-51 cells = assay: Centriole assembly / centrosome amplification assay, Cal-51; assay type: cell-based; details: Cal-51, at 10 μM
Method: as §5
For centriole assembly assays, Cal-51 and MDA-MB-468 cells were treated with candidate compounds prior to a short pulse of BrdU. Because the centriole pair is replicated at the G1/S transition, compounds that block centrosome assembly will lead to an increased number of BrdU-positive cells with two centrioles. In addition, like many breast cancer cells Cal-51 and MDA-MB-468 are capable of centrosome amplification, and compounds that block this centrosome amplification should reduce the number of BrdU-positive cells with more than four centrioles.

[4] = additional investigations (text to Table 2), read-out: IC50, in vitro kinase activity of Mps1
[5] = in vitro kinase assay with Cetn2 substrate, Table 2, read-out: IC50 w/Cetn 2

Molecule | IC50 (BT-549; Homo sapiens, 168 h) | IC50 (CAL-51; Homo sapiens, 168 h) | IC50 (HCC1937; Homo sapiens, 168 h) | IC50 (MDA-MB-436; Homo sapiens, 168 h) | IC50 (MDA-MB-468; Homo sapiens, 168 h) | IC50 (CAMA-1; Homo sapiens, 168 h) | IC50 (MDA-MB-453; Homo sapiens, 168 h) | IC50 (BT-20; Homo sapiens, 168 h) | IC50 (Hs578T; Homo sapiens, Hs-578T, 168 h) | IC50 (MDA-MB-231; Homo sapiens, 168 h) | IC50 (MCF-7; Homo sapiens, MCF7, 168 h) | IC50 (Sk-Br-3; Homo sapiens, 168 h) | IC50 (BT-474; Homo sapiens, 168 h) | potency as compared to Mps1-IN-1 [1] | IC50 [2, 4] | IC50 [2, 5] | effect on centriole assembly [3] | effect on centriole assembly (Cal-51 cells) | effect on centrosome amplification (Cal-51 cells) | other results
COc1ccccc1Nc1nc(Nc2ccccc2S(=O)(=O)C(C)C)c2cc[nH]c2n1 [Compound 10, N4-(2-(isopropylsulfonyl)phenyl)-N2-(2-methoxyphenyl)-7H-pyrrolo-[2,3-d]pyrimidine-2,4-diamine] | 1600 nM | 1500 nM | 990 nM | 1290 nM | 1860 nM | 1550 nM | > 10000 nM | 50 nM | > 10000 nM | 450 nM | 350 nM | 970 nM | 720 nM | significantly more potent | 3400 nM | 3420 nM |  |  |  | IC50 (AU565; Homo sapiens, 168 h): > 10000 nM; IC50 (T47D; Homo sapiens, 168 h): 340 nM
COc1cc(N2CCOCC2)ccc1Nc1nc(Nc2ccccc2S(=O)(=O)C(C)C)c2cc[nH]c2n1 [Compound 11, N4-(2-(isopropylsulfonyl)phenyl)-N2-(2-methoxy-4-morpholinophenyl)-7H-pyrrolo[2,3-d]pyrimidine-2,4-diamine] | 1310 nM | 300 nM | 1100 nM | 1230 nM | 360 nM | 780 nM | > 10000 nM | 1500 nM | > 10000 nM | > 10000 nM | 400 nM | 370 nM | 330 nM | significantly more potent | 13100 nM | 13100 nM |  |  |  | 
COc1cc(N2CCC(O)CC2)ccc1Nc1cc(Nc2ccccc2S(=O)(=O)C(C)C)c2cc[nH]c2n1 [Mps1-IN-1, reference compound] |  |  |  |  |  |  |  |  |  |  |  |  |  |  |  |  | little effect | little effect | little effect | IC50 (BT-549): 2440 nM; IC50 (CAL-51): 1840 nM; IC50 (HCC1937): > 10000 nM; IC50 (MDA-MB-436): > 10000 nM; IC50 (MDA-MB-468): 1850 nM; IC50 (CAMA-1): > 10000 nM; IC50 (MDA-MB-453): > 10000 nM; IC50 (BT-20): > 10000 nM; IC50 (Hs578T): > 10000 nM; IC50 (MDA-MB-231): > 10000 nM; IC50 (MCF-7): > 10000 nM; IC50 (Sk-Br-3): > 10000 nM; IC50 (AU565): > 10000 nM; IC50 (T47D): > 10000 nM; IC50 (BT-474): > 10000 nM
AZ3146 |  |  |  |  |  |  |  |  |  |  |  |  |  |  |  |  | little effect | little effect | little effect | 
